# Assay results reported in paper PMC12751012, “Nanoscale Direct-to-Biology Optimization and Structural Insights into Selective S. aureus TrmD Inhibitors” (Journal of Medicinal Chemistry, 2025).
# Several values for one entry are separate records, joined by “and”; a condition that tells them apart may be missing. Identical values can stand only once. Counter-ions that a name gives are not always drawn.
# Legend:
# Assay type in all cases: binding
# S. aureus TrmD [1] = molecular target: T1, S. aureus TrmD (Staphylococcus aureus, UniProt Q2FZ43); experiment: Isothermal titration calorimetry (ITC) on recombinant S. aureus TrmD
# T1 construct: made in house; host or cells: E. coli BL21
# T1 sequence (Q2FZ43 1-245): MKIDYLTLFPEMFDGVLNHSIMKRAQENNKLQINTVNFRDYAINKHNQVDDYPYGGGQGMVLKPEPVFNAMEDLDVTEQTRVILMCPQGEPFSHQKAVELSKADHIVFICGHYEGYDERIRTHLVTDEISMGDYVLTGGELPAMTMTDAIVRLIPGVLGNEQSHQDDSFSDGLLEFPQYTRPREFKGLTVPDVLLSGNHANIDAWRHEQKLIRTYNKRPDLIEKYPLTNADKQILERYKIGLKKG
# Method: (§1) Experiments were conducted in the S. aureus TrmD SEC buffer (40 mM Tris, pH 7.5, 100 mM NaCl, 10 mM MgCl2, 5% glycerol) for the S. aureus enzyme. The H. influenzae enzyme was buffer exchanged into its ITC buffer (50 mM HEPES, pH 7.5; 500 mM NaCl; 5% glycerol) using Amicon Ultra-15 centrifugal filter units (Merck) prior to use. Compound 1 (BLD Pharmatech) and compound 2 were dissolved in DMSO to a final concentration of 20.0 and 11.6 mM, respectively, and diluted in ITC buffer to give ligand solutions at 1 and 0.58 mM, respectively. Due to a low enthalpy signal, a low c-value titration was performed for compound 1. In this type of experiment, the ligand is typically added at high concentration and in large excess relative to its binding partner, driving more binding events per injection. This causes the equivalence point to be reached after only a few injections and leads to the loss of the characteristic sigmoidal binding curve. TrmD was diluted to a final concentration of 50 μM, and DMSO was added to a final concentration of 5% to match the buffers. ITC measurements were performed using a MicroCal PEAQ-ITC Automated workstation (Malvern Panalytical) equipped with a 200 μL Hastelloy cell and a 40 μL injection syringe. […] Data were analyzed and fitted using the MicroCal PEAQ-ITC Analysis Software 1.21 and plotted in GraphPad Prism 8.0.1.
# H. influenzae TrmD [2] = molecular target: T2, H. influenzae TrmD (Haemophilus influenzae, UniProt P43912); experiment: Isothermal titration calorimetry (ITC) on H. influenzae TrmD
# T2 construct: host or cells: E. coli BL21
# Method: as §1
# S. aureus TrmD [3] = molecular target: T1, S. aureus TrmD; experiment: Fluorescence polarization (FP) assay, tracer 4, S. aureus TrmD
# Method: To enable the screening of hundreds of nanomole-scale synthesized compounds, the implementation of a high-throughput-capable RNA methyltransferase (MTase) assay is considered fundamental. […] In this assay format, a fluorescent, SAM-pocket binding tracer can be displaced by the compound under investigation, and the resulting change in fluorescence polarization defines the read-out of the inhibitor compound’s affinity (Figure A).
# (§2) Fluorescence polarization (FP) assays were performed as follows. The assays for H. influenzae TrmD have been described previously. All assays were conducted in technical triplicate using black 96-well half area plates. For the FP assays, a tracer (20 nM Cy5TPD for E. coli and H. influenzae TrmD, 10 nM tracer 4 for S. aureus TrmD) was mixed with the respective enzyme (2 μM E. coli TrmD, 2 μM H. influenzae TrmD, 500 nM S. aureus TrmD) in buffer (E. coli and H. influenzae TrmD: 50 mM HEPES, 500 mM NaCl, 5% Glycerol, pH 7.5, S. aureus TrmD: 40 mM Tris HCl, 100 mM NaCl, 10 mM MgCl2, 5% Glycerol, pH 7.5). The compounds were added in varying concentrations for K D-value determination. […] The Z-factor for tracer 4 was determined by measuring 48 replicates of the free tracer (positive controls, PC) and 48 replicates of a mixture of enzyme and tracer (negative controls, NC). The Z-factor is defined in terms of the means (μ) and standard deviations (σ) of the positive and negative controls and calculated as Z = 1–(3*(σnc + σpc)/(μnc–μpc)). […] Polarization values (mP) were determined from polarization-specific parallel and orthogonal fluorescence intensities. K D-values were calculated in GraphPad Prism 8.0.1 using the four-parameter Hill equation: y(% tracer bound) = bottom + ([ligand]-slope) × (top–bottom)/([ligand]-slope + K Dslope).
# H. influenzae TrmD [4] = molecular target: T2, H. influenzae TrmD; experiment: Fluorescence polarization (FP) assay, tracer 3 (Cy5TPD), H. influenzae TrmD; conditions: tracer, enzyme concentration varied; read-out: KD of fluorescent tracer, H. influenzae TrmD (FP)
# Method: as §2
# S. aureus TrmD [5] = molecular target: T1, S. aureus TrmD; experiment: Fluorescence polarization (FP) assay, tracer 4, S. aureus TrmD; conditions: enzyme concentration varied, read-out: KD of fluorescent tracer, S. aureus TrmD (FP)
# [6] = KD S. aureus TrmD (FP displacement assay), apparent affinity, purified compound, 500 nM TrmD, 10 nM tracer 4
# [7] = apparent affinity, purified compound, 500 nM TrmD, 10 nM tracer 4, read-out: KD S. aureus TrmD (FP displacement assay)
# T2 sequence (P43912 whole entry): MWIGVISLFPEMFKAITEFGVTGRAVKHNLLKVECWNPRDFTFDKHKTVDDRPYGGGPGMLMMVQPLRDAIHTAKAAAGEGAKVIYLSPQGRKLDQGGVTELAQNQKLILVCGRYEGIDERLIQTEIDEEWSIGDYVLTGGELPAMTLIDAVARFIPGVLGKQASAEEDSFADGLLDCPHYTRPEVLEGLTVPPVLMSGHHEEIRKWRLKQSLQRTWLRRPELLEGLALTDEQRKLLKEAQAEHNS
SMILES,Kd (S. aureus TrmD [1]) [µM],Kd (H. influenzae TrmD [2]) [µM],Kd (S. aureus TrmD [3]; [6]) [µM],Kd (S. aureus TrmD [5]),Kd (S. aureus TrmD [3]; [7]) [µM],also measured
"Oc1ncnc2scc(-c3ccccc3)c12 [Compound 1, O=C1NC=NC2=C1C(C3=CC=CC=C3)=CS2]",19.8,24.3 ± 6.16,28.6,,,
"NCc1ccc(CNC(=O)c2csc3nc[nH]c(=O)c23)cc1 [Compound 2, N-(4-(Aminomethyl)benzyl)-4-oxo-3,4-dihydrothieno[2,3-d]pyrimidine-5-carboxamide]",12.9,4.55 ± 0.31,13.8,,,
"C#Cc1c[nH]c2nc[nH]c(=O)c12 [Compound 7, 5-Ethynyl-3,7-dihydro-4H-pyrrolo[2,3-d]pyrimidin-4-one]",,,,,> 100,
"CC(=O)NCCCn1cc(-c2c[nH]c3nc[nH]c(=O)c23)nn1 [Compound 8a, N-(3-(4-(4-Oxo-4,7-dihydro-3H-pyrrolo[2,3-d]pyrimidin-5-yl)-1H-1,2,3-triazol-1-yl)propyl)acetamide]",,,,,10.4 ± 1.8,"Kd (S. aureus TrmD [3]; crude nanomole-scale reaction mixture, read-out: KD(in situ) S. aureus TrmD (FP displacement assay)): 4.98 µM"

# Second part, led by results:
Kd (S. aureus TrmD [1]) [µM],Kd (H. influenzae TrmD [2]) [µM],Kd (S. aureus TrmD [3]; [6]) [µM],Kd (S. aureus TrmD [5]),Kd (S. aureus TrmD [3]; [7]) [µM],SMILES,also measured
,,,23.3 µM,,"CN1/C(=C/C=C/C=C/C2=[N+](CCCCCC(=O)NCCCn3cc(CNC(=O)c4csc5nc[nH]c(=O)c45)nn3)c3ccccc3C2(C)C)C(C)(C)c2ccccc21 [Compound 3, reference compound]",Kd (H. influenzae TrmD [4]): 2 µM and 2.02 µM
,,,0.659 µM and 0.66 µM,,"CN1/C(=C/C=C/C=C/C2=[N+](CCCCCC(=O)NCCCn3cc(-c4c[nH]c5nc[nH]c(=O)c45)nn3)c3ccccc3C2(C)C)C(C)(C)c2ccccc21 [Compound 4, 3,3-Dimethyl-1-(6-oxo-6-((3-(4-(4-oxo-4,7-dihydro-3H-pyrrolo[2,3-d]pyrimidin-5-yl)-1H-1,2,3-triazol-1-yl)propyl)amino)hexyl)-2-((1E,3E)-5-((E)-1,3,3-trimethylindolin-2-ylidene)penta-1,3-dien-1-yl)-3H-indol-1-ium trifluoroacetate]",
